Results reported in patent publication US9618513B2, “Compositions and methods for detecting and treating colorectal cancer” (The Regents of the University of Michigan, priority 2014, dated 2017).
“Also recorded” adds a separate entry of the source.

What was measured:
Type in all cases: cell-based, human
[1] = system: STAT3; assay: STAT phosphorylation by western blotting; settings: colon cancer cells treated with IL-22
Protocol: (A) IL-22 induced STAT3 phosphorylation. Colon cancer cells were treated with IL-22 for different time points. The protein levels of phosphorylated STAT3 and STAT3 were detected by Western blotting. (B, C) IL-22 induced colon cancer spheres via STAT3. Sphere assay was performed with shSTAT3 colon cancer cells in the presence of IL-22. Results were shown as sphere images (b) and the mean numbers of spheres in triplicate (c). (n=5. P<0.01). (D-F) IL-22 stimulated colon cancer sternness gene expression via STAT3. Colon cancer cells expressing shSTAT3 or scrambled vector were cultured with IL-22. Stem cell core gene mRNAs were detected by real-time PCR after 6 hours (n=5, *P<0.05). (G, H) IL-22 causes STAT3 occupancy on SOX2 promoter areas. STAT3-ChIP assay was performed in DLD-1 cells cultured with or without IL-22. One of at least three experiments is shown.
A. The protein level of phosphorylated STAT3, STAT1 and STATS were activated by IL-22. B. The effect of STAT3 knock down. C. The effect of IL-22 on cell proliferation was analyzed using H^3 Thymidine Incorporation in Stat3 knock down cells. D. Knock down of STAT3 reduced the expression of EZH2 and SUZ12. E. Based on the ENCODE STAT3-ChIP-Seq data base, STAT3 occupancy on the promoter areas of SUZ12 and EED is shown. F. SUZ12/EED DNA was detected by ChIP assay using an antibody against STAT3, c-fos was used as a positive control. […]

[2] = system: H3K27me3 in the promoter of p16 and p18; assay: H3K27me3 ChIP at p16 and p18 promoters; settings: after IL-22 stimulation
Protocol: A, C. Cell proliferation was analyzed using H^3 Thymidine Incorporation. B. The level of total H3K79m2 and H3K27me3 was measured by Western Blot. D. PcG proteins of EZH2, EED, SUZ12 was increased with IL-22(20 ng/ml) treatment. E. EZH2, SUZ12 and EED was detected by Western Blot after IL-22 treated for 24 h or 48 h. F. EZH2 inhibitor DZNep reduced cell proliferation. G.H. The efficiency of EZH2 and SUZ12 knock down was tested by Western Blot. I.J. Cell proliferation was analyzed using H^3 Thymidine Incorporation after knock down of EZH2 and SUZ12. K.L. Relative expression of cyclin-dependent kinase inhibitors (p16 and p18) in shEZH2, shSUZ12 and Dznep treated cells after IL-22 treatment. M. The level of H3K27me3 in the promoter of p16 and p18 was analyzed by ChIP assay.
ChIP assay was performed according to the protocol (Upstate, Millipore; htt, followed by, p://www.millip, followed by, ore.com/techpublica, followed by, tions/tech1/mcproto407). Crosslinking was performed with 1% formaldehyde or 1% paraformaldehyde for 10 min. To enhance cell lysis, we ran the lysate through a 27 g needle three times and flash froze it in −80° C. Sonication was then performed with the Misonix 4000 water bath sonication unit at 15% amplitude for 10 min. Protein/DNA complex was precipitated by specific antibodies against H3K79me2, H3K27me3 (Millipore), Stat3 (Cell Signaling) and IgG control (Millipore). […]

[3] = system: DOT1L, AFF4, MLLT10; assay: DOT1L complex gene expression by real-time PCR; settings: DLD-1 and primary colon cancer cells, IL-22 12 hours
Protocol: (A) IL-22 induces H3K79me2 in colon cancer cells. Colon cancer cells were treated with IL-22 for 48 hours. Total histone modifications were analyzed by western blot. (B, C) DOT1L inhibitor, EPZ004777 suppresses colon cancer sphere formation induced by IL-22. Colon cancer sphere assay was performed in the presence of IL-22 and EPZ004777. Sphere numbers were recorded. DLD-1 cells (B), primary colon cancer cells (C). (n=5, P<0.05). (D, E) IL-22 stimulates DOT1L complex gene expression. Colon cancer cells were cultured for 12 hours with IL-22. DOT1L complex gene expression was quantified by real-time PCR. DLD-1 cells (D), primary colon cancer cells (E). (n=3, P<0.05). (F) DOT1L knock down results in reduced colon cancer sphere formation induced by IL-22. Colon cancer sphere assay was performed with colon cancer cells expressing sh-DOT1L or vector in the presence of IL-22. Sphere numbers were recorded. (n=5, P<0.05). (G-I), IL-22 causes higher occupancy of H3K79me2 on core stem cell gene promoters. H3K79me2-ChIP assay was performed in DLD-1 colon cancer cells cultured with IL-22. One of 3 experiments is shown. […]
The mRNA was quantified by real-time RT-PCR. […] SYBR Green Master Mix was used to detect fluorescence. Relative expression was calculated according to the Ct value with normalization to GAPDH.

IL-22: recombinant IL-22 (R&D systems), cytokine interleukin-22
STAT3 activation (phosphorylation) [1]: activated; also recorded: activated STAT3 strongly | level of H3K27m3 in the promoter of p16 and p18 [2]: increased | expression of DOT1L, AFF4 [3]: consistently promoted
